By IC50 is commonly meant the midpoint of a concentration-inhibition curve.

The results in this text go back to ChEMBL document CHEMBL5247574, “Recent Progress on Bile Acid Receptor Modulators for Treatment of Metabolic Diseases” (J Med Chem, 2016).

The target of experiment [1] is T1, Bile acid receptor (Homo sapiens, UniProt Q96RI1).
T1 sequence (Q96RI1 whole entry): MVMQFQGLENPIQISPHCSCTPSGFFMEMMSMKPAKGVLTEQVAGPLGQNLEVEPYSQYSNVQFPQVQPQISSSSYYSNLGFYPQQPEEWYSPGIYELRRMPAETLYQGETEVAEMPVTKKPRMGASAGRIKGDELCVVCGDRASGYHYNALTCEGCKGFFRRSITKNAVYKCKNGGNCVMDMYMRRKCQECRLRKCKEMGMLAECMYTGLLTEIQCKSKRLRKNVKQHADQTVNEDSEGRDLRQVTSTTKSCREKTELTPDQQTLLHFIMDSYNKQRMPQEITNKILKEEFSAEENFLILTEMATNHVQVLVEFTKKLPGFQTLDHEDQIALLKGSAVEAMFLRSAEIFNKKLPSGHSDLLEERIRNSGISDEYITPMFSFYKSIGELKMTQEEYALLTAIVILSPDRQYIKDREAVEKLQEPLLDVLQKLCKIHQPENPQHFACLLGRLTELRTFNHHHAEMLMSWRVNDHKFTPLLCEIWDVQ
Description: Agonist activity at FXR (unknown origin).

Experiment [2] concerns the target T2, G-protein coupled bile acid receptor 1 (Homo sapiens, UniProt Q8TDU6).
T2 sequence (Q8TDU6 whole entry): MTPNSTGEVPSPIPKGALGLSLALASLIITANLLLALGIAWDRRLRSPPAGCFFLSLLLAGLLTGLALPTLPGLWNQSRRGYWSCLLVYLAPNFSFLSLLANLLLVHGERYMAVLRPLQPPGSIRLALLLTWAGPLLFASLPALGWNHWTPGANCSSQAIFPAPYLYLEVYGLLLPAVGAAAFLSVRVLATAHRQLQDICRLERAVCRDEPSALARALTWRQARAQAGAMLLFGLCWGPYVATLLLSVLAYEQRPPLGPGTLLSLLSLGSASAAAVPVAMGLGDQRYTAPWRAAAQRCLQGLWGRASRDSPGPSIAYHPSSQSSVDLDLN
Description: Agonist activity at TGR5 in human HEK293 cells assessed as increase in cAMP production. It is filed as cell-based. (In general: cAMP levels reflect the balance of adenylyl cyclase and phosphodiesterase activity.)

Experiment [3] addresses T2, G-protein coupled bile acid receptor 1. Description: Agonist activity at human TGR5 transfected in CHO cells assessed as increase in cAMP production. It is filed as cell-based.
The target in experiment [4] is T1, Bile acid receptor. Description: Agonist activity at human GST-tagged FXR LBD (193 to 472 residues) by FRET assay.
Experiment [5] addresses T3, G-protein coupled bile acid receptor 1 (Homo sapiens) (UniProt Q8TDU6).
T3 sequence (whole entry): T2 sequence (Q8TDU6 whole entry)
Put plainly: Agonist activity at human TGR5 expressed in human HEK293 cells at 20 uM measured after 5.5 hrs by steady-glo luciferase assay relative to control. It counts as cell-based. The note with it: filed as agonist.

For experiment [6], the target named is T2, G-protein coupled bile acid receptor 1. Put plainly: Agonist activity at human TGR5 expressed in human HEK293 cells measured after 5.5 hrs by steady-glo luciferase assay. It is filed as cell-based.
The target of experiment [7] is T3, G-protein coupled bile acid receptor 1 (Homo sapiens). Description: Agonist activity at human TGR5 transfected in human NCI-H716 cells assessed as increase in cAMP production at 10 uM relative to control. It is filed as cell-based. Particulars: filed as agonist.
The target is the same in experiment [8]. Put plainly: Agonist activity at human TGR5 transfected in human NCI-H716 cells assessed as increase in GLP-1 secretion at 5 uM relative to control. It counts as cell-based. The note with it: filed as agonist.
Experiment [9] has as its target T1, Bile acid receptor. Put plainly: Antagonist activity at FXR in human HepG2 cells in presence of CDCA by luciferase reporter assay. It is filed as cell-based. On the technique in general: A reporter such as luciferase makes a cellular process visible.
Experiment [10] addresses T4, G-protein coupled bile acid receptor 1 (Mus musculus, UniProt Q80SS6).
T4 sequence (Q80SS6 whole entry): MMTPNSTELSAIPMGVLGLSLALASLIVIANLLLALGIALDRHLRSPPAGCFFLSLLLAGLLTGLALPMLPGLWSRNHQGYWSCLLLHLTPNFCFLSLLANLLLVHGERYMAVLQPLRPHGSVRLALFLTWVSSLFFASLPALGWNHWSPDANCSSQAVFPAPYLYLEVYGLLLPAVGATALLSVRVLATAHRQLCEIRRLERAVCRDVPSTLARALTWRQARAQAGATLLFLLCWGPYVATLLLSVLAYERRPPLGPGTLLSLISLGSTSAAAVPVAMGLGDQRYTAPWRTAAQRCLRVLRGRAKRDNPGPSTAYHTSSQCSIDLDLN
Put plainly: Agonist activity at mouse TGR5.

Experiment [11] deals with T2, G-protein coupled bile acid receptor 1. Description: Agonist activity at human TGR5. The note with it: read-out: pEC50 (converted).
Experiment [12] addresses T1, Bile acid receptor. Put plainly: Antagonist activity at FXR (unknown origin) by HTFR assay.

In the case of `CO[C@H](c1ccccc1)c1nc2cc(F)c(F)cc2n1C(C(=O)Nc1ccc(C(=O)O)cc1C)C1CCCCC1` (stereo not given in full), the IC50 at Bile acid receptor [1] was found to be 20 nM.

Regarding `Cc1ccc(-c2csc3nnc(SCc4c(F)cccc4Cl)n23)cc1`, the EC50 in experiment [2] was less than 0.5 nM.

For `O=C(Nc1cc(Cl)ccc1-c1nc2cc(F)c(F)cc2n1CC1CCCCC1)c1ccc(-c2nnn[nH]2)cc1F`, the half-maximal inhibitory concentration (IC50) at Bile acid receptor [1] worked out at 0.4 nM.

For `Fc1cccc(F)c1-c1ccncc1CN1C(c2ccco2)=NOC1c1ccccc1` (stereo not given), the EC50 in experiment [2] was less than 100 nM.

For the compound `COc1cc(F)ccc1-c1ccncc1N(C)C(=O)c1cc(C(F)(F)F)cc(S(=O)(=O)N2CC3(COC3)C2)c1`, the EC50 in experiment [3] came to 9 nM.

On Bile acid receptor [4], `O=C(O)c1ccc2nc(N3CCC(OCc4c([C@H]5CCCC[C@@H]5C(F)(F)F)noc4C4CC4)CC3)sc2c1` (stereo in doubt; form 2) showed an EC50 of 245 nM.

On to `Fc1ccccc1-c1ccncc1CN1C(c2ccco2)=NOC1c1cc(C(F)(F)F)cc(C(F)(F)F)c1` (stereo not given), for which the Activity in experiment [5] was found to be 102%. This compound also had an EC50 in experiment [6] of 15 nM.

`Brc1ccc(CCNCc2cc3ccncc3nc2-c2ccsc2)cc1`: the EC50 in experiment [2] was less than 10000 nM.

Regarding `CNc1cccc([C@H]2O[C@H](CC(=O)Nc3ccccc3F)C(=O)N(CC(C)C)c3ccccc32)c1`, the Activity in experiment [7] worked out at 100%; in experiment [8] it was 157%.

With `C=C1[C@@H](O)CC[C@]2(C)C3CC[C@@]4(C)C(=C3CC[C@@H]12)CC[C@@H]4[C@H](C)CC[C@H](CC)C(C)C` (stereo not given in full), at Bile acid receptor [9], the IC50 stood at 40000 nM.

Take `O=C(c1cccnc1Oc1cccc(C(F)(F)F)c1)N1CCCc2ccccc21`: the EC50 in [10] was 2020 nM.

Take `COc1ccc(S(=O)(=O)N2CCCN(S(=O)(=O)c3ccc(OC)c(OC)c3)CC2)cc1OC` [SB-756050]: the EC50 in [11] is 1000 nM.

As for `CC(C)c1onc(-c2c(Cl)cccc2Cl)c1COc1ccn(Cc2ccc(-c3ccccc3C(=O)O)cc2)n1`, the EC50 at Bile acid receptor [12] is 6000 nM.

Turning to `CC(C)c1onc(-c2c(Cl)cccc2Cl)c1COc1ccn(-c2cccc(C(=O)O)c2)n1`, the EC50 at Bile acid receptor [12] was 80000 nM.

For the compound `O=C(c1cc(C(F)(F)F)cc(C(F)(F)F)c1)N1CCCn2cccc2C1c1ccccc1` (stereo not given), the EC50 in [2] was less than 10000 nM.

For the compound `Fc1ccc(-n2c(COc3cccc4cnccc34)nc3ccccc32)c(Cl)c1`, in [2], the EC50 was found to be 229 nM.

Consider `Cc1noc2cc(Cl)c(Oc3ccncc3C(=O)N3CCN(C4CC4)c4ccccc43)cc12`, for which the EC50 in experiment [2] came to 0.43 nM.

`O=c1c2nccnc2nc(-c2ccc(F)cc2)n1CCc1ccc(Cl)cc1`: the EC50 in [2] was less than 10000 nM.

As to `CC(C)n1ncc2cc(CNCc3ccc(C(F)(F)F)cc3)c(-c3ccsc3)cc21`, the EC50 in [2] was less than 10000 nM.

In the case of `Cc1ccccc1[C@H](C/C(=N/O)C1CCC(=O)N(C)C1)c1ccc(S(C)(=O)=O)cc1` (stereo not given in full), the EC50 in experiment [3] was found to be 29 nM.

For the compound `Fc1cccc(F)c1-c1ccncc1CN1C(c2ccco2)=NO[C@@H]1c1cc(C(F)(F)F)cc(C(F)(F)F)c1Cl`, the Activity in experiment [5] came to 96%. For the same compound, the EC50 in experiment [6] amounted to 1.4 nM.

The compound `O=C(O)c1ccccc1-c1ccc(Cn2ccc(OCc3c(-c4c(Cl)cccc4Cl)noc3-c3cccs3)n2)cc1` displayed an IC50 against Bile acid receptor [12] of 4200 nM.
